Tested on: HL60 cell line
Experiment: Inhibitory effect on growth of HL60 cell line (MTT)
Format: cell-based
Conditions: Homo sapiens, HL-60, 72 h, 3 days culture
Protocol: In the culture of HL60 cells, 10% FBS-containing RPMI1640 medium was used Each of test substances was serially diluted in DMSO to a concentration of 10 mg/ml and serially diluted in PBS to a final concentration ranging from 100 μg/ml to 0.03 μg/ml. 20 μl (micro-liter) of each of the serially diluted test substances and 180 μl (micro-liter) of a medium containing 60×10^4 cells/ml were added to a 96-well plate and cultured under conditions of 37° C. and 5% CO2 for 3 days. After completion of the culture, 50 μl (micro-liter) of a solution of 1.25 mg/ml MTT (3-(4,5-dimethylthiazol-2-yl)-2,5-diphenyltetrazolium bromide) in PBS was added to each well of the plate and incubated at 37° C. for 3 hours. The formed formazan crystal was dissolved in 150 μl (micro-liter) of DMSO, and the absorbance at 570 nm was measured.

Row | IC50 [µM] | Compound
1 | 0.02 to 0.05 | COc1ccc(C(=O)N(CCCCCCC(=O)NO)c2ccc(-c3ccc4cc[nH]c4c3)cc2)cc1 [Compound 180, N-(4-(1H-indol-6-yl)phenyl)-N-(7-(hydroxyamino)-7-oxoheptyl)-4-methoxybenzamide]
2 | 0.02 to 0.05 | O=C(CCCCCCN(C(=O)c1cccnc1)c1ccc(-c2ccc3cc[nH]c3c2)cc1)NO [Compound 181, N-(4-(1H-indol-6-yl)phenyl)-N-(7-(hydroxyamino)-7-oxoheptyl)nicotinamide]
3 | 0.05 to 0.1 | O=C(CCCCCCN(C(=O)c1ccccn1)c1ccc(-c2ccc3cc[nH]c3c2)cc1)NO [Compound 211, N-(4-(1H-indol-6-yl)phenyl)-N-(7-(hydroxyamino)-7-oxoheptyl)picolinamide]
4 | 0.05 to 0.1 | COc1cccc(NC(=O)N(CCCCCCC(=O)NO)c2ccc(-c3ccc4cc[nH]c4c3)cc2)c1 [Compound 256, 7-(1-(4-(1H-indol-6-yl)phenyl)-3-(3-methoxyphenyl)ureido)-N-hydroxyheptanamide]
5 | 0.05 to 0.1 | COc1cc(NC(=O)N(CCCCCCC(=O)NO)c2ccc(-c3ccc4cc[nH]c4c3)cc2)cc(OC)c1 [Compound 260, 7-(1-(4-(1H-indol-6-yl)phenyl)-3-(3,5-dimethoxyphenyl)ureido)-N-hydroxyheptanamide]
6 | 0.02 to 0.05 | O=C(CCCCCCN(c1ccc(-c2ccc3cc[nH]c3c2)cc1)S(=O)(=O)c1cccnc1)NO [Compound 263, 7-(N-(4-(1H-indol-6-yl)phenyl)pyridine-3-sulfonamido)-N-hydroxyheptanamide]
7 | 0.02 to 0.05 | CS(=O)(=O)N(CCCCCCC(=O)NO)c1ccc(-c2ccc3cc[nH]c3c2)cc1 [Compound 264, 7-(N-(4-(1H-indol-6-yl)phenyl)methylsulfonamido)-N-hydroxyheptanamide]
8 | 0.05 to 0.1 | CN(C)CC(=O)N(CCCCCCC(=O)NO)c1ccc(-c2ccc3cc[nH]c3c2)cc1 [Compound 265, 7-(N-(4-(1H-indol-6-yl)phenyl)-2-(dimethylamino)acetamido)-N-hydroxyheptanamide]
9 | 0.05 to 0.1 | CCOC(=O)N(CCCCCCC(=O)NO)c1ccc(-c2ccc3cc[nH]c3c2)cc1 [Compound 267, Ethyl 4-(1H-indol-6-yl)phenyl(7-(hydroxyamino)-7-oxoheptyl)carbamate]
10 | 0.05 to 0.1 | Cn1ncc2ccc(-c3ccc(N(CCCCCCC(=O)NO)C(=O)c4cccnc4)cc3)cc21 [Compound 270, N-(7-(hydroxyamino)-7-oxoheptyl)-N-(4-(1-methyl-1H-indazol-6-yl)phenyl)nicotinamide]
11 | 0.05 to 0.1 | CNC(=O)N(CCCCCCC(=O)NO)c1ccc(-c2ccc3cc[nH]c3c2)cc1 [Compound 275, 7-(1-(4-(1H-indol-6-yl)phenyl)-3-methylureido)-N-hydroxyheptanamide]
12 | 0.02 to 0.05 | CCS(=O)(=O)N(CCCCCCC(=O)NO)c1ccc(-c2ccc3cc[nH]c3c2)cc1 [Compound 276, 7-(N-(4-(1H-indol-6-yl)phenyl)ethylsulfonamido)-N-hydroxyheptanamide]
13 | 0.05 to 0.1 | CN(C)S(=O)(=O)N(CCCCCCC(=O)NO)c1ccc(-c2ccc3cc[nH]c3c2)cc1 [Compound 277, 7-((4-(1H-indol-6-yl)phenyl)(N,N-dimethylsulfamoyl)amino)-N-hydroxyheptanamide]
14 | 0.05 to 0.1 | Cn1ncc2ccc(-c3ccc(N(CCCCCCC(=O)NO)S(C)(=O)=O)cc3)cc21 [Compound 284, N-hydroxy-7-(N-(4-(1-methyl-1H-indazol-6-yl)phenyl)methylsulfonamido)heptanamide]
15 | 0.05 to 0.1 | CCNC(=O)N(CCCCCCC(=O)NO)c1ccc(-c2ccc3cc[nH]c3c2)cc1 [Compound 295, 7-(1-(4-(1H-indol-6-yl)phenyl)-3-ethylureido)-N-hydroxyheptanamide]
16 | 0.05 to 0.1 | Cc1cc2cc(-c3ccc(N(CCCCCCC(=O)NO)S(C)(=O)=O)cc3)ccc2[nH]1 [Compound 296, N-hydroxy-7-(N-(4-(2-methyl-1H-indol-5-yl)phenyl)methylsulfonamido)heptanamide]
17 | 0.01 to 0.02 | CS(=O)(=O)N(CCCCCCC(=O)NO)c1ccc(-c2ccc3[nH]ccc3c2)cc1 [Compound 303, 7-(N-(4-(1H-indol-5-yl)phenyl)methylsulfonamido)-N-hydroxyheptanamide]
18 | 0.02 to 0.05 | O=C(CCCCCCN(C(=O)c1ccccn1)c1ccc(-c2ccc3[nH]ccc3c2)cc1)NO [Compound 305, N-(4-(1H-indol-5-yl)phenyl)-N-(7-(hydroxyamino)-7-ooxheptyl)picolinamide]
19 | 0.01 to 0.02 | O=C(CCCCCCN(C(=O)N1CCOCC1)c1ccc(-c2ccc3cc[nH]c3c2)cc1)NO [Compound 306, N-(4-(1H-indol-6-yl)phenyl)-N-(7-(hydroxyamino)-7-oxoheptyl)morpholine-4-carboxamide]
20 | 0.01 to 0.02 | CN1CCN(C(=O)N(CCCCCCC(=O)NO)c2ccc(-c3ccc4cc[nH]c4c3)cc2)CC1 [Compound 309, N-(4-(1H-indol-6-yl)phenyl)-N-(7-(hydroxyamino)-7-oxoheptyl)-4-methylpiperazine-1-carboxamide]
21 | 0.02 to 0.05 | CN1CCN(C(=O)N(CCCCCCC(=O)NO)c2ccc(-c3ccc4[nH]ccc4c3)cc2)CC1 [Compound 313, N-(4-(1H-indol-5-yl)phenyl)-N-(7-(hydroxyamino)-7-oxoheptyl)-4-methylpiperazine-1-carboxamide]
22 | 0.02 to 0.05 | CCS(=O)(=O)N(CCCCCCC(=O)NO)c1ccc(-c2ccc3[nH]ccc3c2)cc1 [Compound 314, 7-(N-(4-(1H-indol-5-yl)phenyl)ethylsulfonamido)-N-hydroxyheptanamide]
23 | 0.02 to 0.05 | CS(=O)(=O)N(CCCCCCC(=O)NO)c1ccc(-c2ccc3cc[nH]c3c2)nc1 [Compound 326, 7-(N-(6-(1H-indol-6-yl)pyridin-3-yl)methylsulfonamido)-N-hydroxyheptanamide]
24 | 0.05 to 0.1 | Cn1ncc2ccc(-c3ccc(N(CCCCCCC(=O)NO)S(C)(=O)=O)cn3)cc21 [Compound 327, N-hydroxy-7-(N-(6-(1-methyl-1H-indazol-6-yl)pyridin-3-yl)methylsulfonamido)heptanamide]
25 | 0.02 to 0.05 | CS(=O)(=O)N(CCCCCCC(=O)NO)c1ccc(-c2ccc3[nH]ccc3c2)nc1 [Compound 328, 7-(N-(6-(1H-indol-5-yl)pyridin-3-yl)methylsulfonamido)-N-hydroxyheptanamide]
26 | 0.05 to 0.1 | CN1CCCN(C(=O)N(CCCCCCC(=O)NO)c2ccc(-c3ccc4cc[nH]c4c3)cc2)CC1 [Compound 330, N-(4-(1H-indol-6-yl)phenyl)-N-(7-(hydroxyamino)-7-oxoheptyl)-4-methyl-1,4-diazepane-1-carboxamide]
27 | 0.01 to 0.02 | CCN1CCN(C(=O)N(CCCCCCC(=O)NO)c2ccc(-c3ccc4[nH]ccc4c3)cc2)CC1 [Compound 340, N-(4-(1H-indol-5-yl)phenyl)-4-ethyl-N-(7-(hydroxyamino)-7-oxoheptyl)piperazine-1-carboxamide]
28 | 0.02 to 0.05 | CN1CCN(C(=O)N(CCCCCCC(=O)NO)c2ccc(-c3ccc4c(ccn4C)c3)cc2)CC1 [Compound 341, N-(7-(hydroxyamino)-7-oxoheptyl)-4-methyl-N-(4-(1-methyl-1H-indol-5-yl)phenyl)piperazine-1-carboxamide]
29 | 0.02 to 0.05 | CN1CCN(S(=O)(=O)N(CCCCCCC(=O)NO)c2ccc(-c3ccc4cnn(C)c4c3)cc2)CC1 [Compound 342, N-hydroxy-7-(4-methyl-N-(4-(1-methyl-1H-indazol-6-yl)phenyl)piperazine-1-sulfonamido)heptanamide]
